# Assay results: patent EP1948196B1, “USE OF TETRAORGANOSILICON COMPOUNDS” (Salama, Zoser B., priority 2005, dated 2007)
# Numbered stars: 1 amine (or outer) side, 2 acyl side, 3 side chain; on linkers, the order of the positions; unused ones are H or OH. Bridge positions count the residues as written; N and C are the ends. Peptide text beside a SMILES is read from it. I, II: the chains in the order shown. OSiEt2O = CC[Si](CC)(O[*:1])O[*:2]
# Experiments:
# Krebszellen = test: Mean IC50 over all cancer cell lines; format: cell-based
# Procedure: (§1) Die Silane 1, 5, 9, 10, 11, 13, 15, 16 wurden in Ethanol gelöst und in MTT Assays in einer anfänglichen Konzentration von 200 µg/ml (5 Lösungsschritte 200 - 12.5 µg/ml) verwendet. Die Platten wurde für eine Dauer.von 4 Tagen inkubiert und die Entwicklungsfähigkeit mithilfe des EZ4U Test bestimmt. Die IC50 Werte wurden ausgehend von Dosierungs-Reaktions-Linien berechnet Zelllinien: Colo 205 and HT29 - Kolonkarzinom; BxPC3 and MIAPaCa2 - Pankreaskrebs; CRO2B - karzinoid, A431 Epidermalkarzinom; normale Zellen: WI38 - humane embryonale Fibroblasten; NIH3T3 - mausartige Fibroblasten; IEC6 - mausartige Enterozyten.
# (§2) Mittelwerte-IC50 für alle Krebs- oder normalen Zelllinien: […]
# [1] = system: Panc1 Pankreaskrebszellen; test: subG1 apoptotic fraction, propidium iodide, flow cytometry; format: cell-based; settings: 50 µg/ml, 4 Tage
# Procedure: (§3) Die Zellen (IEC6 mausartige Enterozyten; Panc1 Pankreaskrebszellen; Colo205 Kolonkarzinom) wurden mit 50 µg/ml Silanen inkubiert und nach 4-tägiger Aussetzung auf DNA eingefärbt (Propidiumiodid). Die SubG1 Zellteilung wurde mittels Durchflusscytometrie bestimmt.
# Colo205 Kolonkarzinom = test: as above; format: cell-based; settings: 50 µg/ml, 4 Tage
# Procedure: as §3
# BxPC3 - Pankreaskrebs = test: MTT assay / EZ4U test, 4 days; format: cell-based
# Procedure: as §1
# HT29 - Kolonkarzinom = test: MTT assay / EZ4U test, 4 days; format: cell-based
# Procedure: as §1
# CRO2B - karzinoid = test: MTT assay / EZ4U test, 4 days; format: cell-based
# Procedure: as §1
# [2] = system: IEC6 - mausartige Enterozyten; test: MTT assay / EZ4U test, 4 days; format: cell-based
# Procedure: as §1
# MIAPaCa2 - Pankreaskrebs = test: MTT assay / EZ4U test, 4 days; format: cell-based
# Procedure: as §1
# A431 Epidermalkarzinom = test: MTT assay / EZ4U test, 4 days; format: cell-based
# Procedure: as §1
# Colo 205 - Kolonkarzinom = test: MTT assay / EZ4U test, 4 days; format: cell-based
# Procedure: as §1
# [3] = system: NIH3T3 - mausartige Fibroblasten; test: MTT assay / EZ4U test, 4 days; format: cell-based
# Procedure: as §1
# [4] = system: WI38 - humane embryonale Fibroblasten; test: MTT assay / EZ4U test, 4 days; format: cell-based
# Procedure: as §1
# colo205 (Kofon-Karzinom) = test: MTT test, triplicate, two-fold dilutions; format: cell-based
# Procedure: (§4) Die Silan wurden in Ethanol aufgelöst und in Zellkulturmedien in Konzentrationen von bis zu 500 µg/ml resuspendiert. Es wurden MTT Tests in dreifacher Ausführung durchgeführt, für welche doppelte Lösungen (7 Schritte) und colo205 (Kofon-Karzinom), BxPC3 (pankreatisches Adenokarzinom) sowie T47D (Brustkrebs) benutzt wurden.
# [5] = system: BxPC3 (pankreatisches Adenokarzinom); test: MTT test, triplicate, two-fold dilutions; format: cell-based
# Procedure: as §4
# T47D (Brustkrebs) = test: MTT test, triplicate, two-fold dilutions; format: cell-based
# Procedure: as §4
# Normale Zellen = test: Mean IC50 over all normal cell lines; format: cell-based
# Procedure: as §1, §2
# Medulloblastome = test: Effect on medulloblastomas
# [6] = system: IEC6 mausartige Enterozyten; test: subG1 apoptotic fraction, propidium iodide, flow cytometry; format: cell-based; settings: 50 µg/ml, 4 Tage
# Procedure: as §3
# [7] = Homo sapiens, BXPC-3, read-out: IC50 BxPC3
# [8] = Homo sapiens, COLO 205, read-out: IC50 Colo205
structure (smiles),measurement,setting,value
"CCCCCCCCCCCCCCCCCC(=O)O[Si](CC)(CC)OC(=O)CCCCCCCCCCCCCCCCC [Si13, Di (octadecanoyloxy) diethylsilan]",IC50,Krebszellen; read-out: IC50 Krebszellen (Durchschnitt ± SD),17.3 µg/mL
same,subG1 apoptotische Zellteilung Panc1,[1],"36,7 ± 0,5"
same,subG1 apoptotische Zellteilung Colo205,Colo205 Kolonkarzinom,"4,8 ± 0,49"
same,IC50,BxPC3 - Pankreaskrebs; [7],17.5 µg/mL
same,IC50,"HT29 - Kolonkarzinom; Homo sapiens, HT-29, read-out: IC50 HT29",18.3 µg/mL
same,IC50,CRO2B - karzinoid; read-out: IC50 CR02B,17.8 µg/mL
same,IC50,"[2]; Rattus norvegicus, IEC-6, read-out: IC50 IEC6",17 µg/mL
same,IC50,"MIAPaCa2 - Pankreaskrebs; Homo sapiens, MIA PaCa-2, read-out: IC50 MlAPaCa2",110 µg/mL
same,IC50,"A431 Epidermalkarzinom; Homo sapiens, A-431, read-out: IC50 A431",15.9 µg/mL
same,IC50,Colo 205 - Kolonkarzinom; [8],47.5 µg/mL
same,IC50,"[3]; Mus musculus, NIH3T3, read-out: IC50 NIH3T3",20.6 µg/mL
same,IC50,"[4]; Homo sapiens, WI-38, read-out: IC50 WI38",16.5 µg/mL
same,IC50,colo205 (Kofon-Karzinom); [8],125 µg/mL
same,IC50,[5]; [7],10 µg/mL
same,IC50,"T47D (Brustkrebs); Homo sapiens, T47D, read-out: IC50 T47D",8 µg/mL
same,IC50,Normale Zellen; read-out: IC50 Normale Zellen (Durchschnitt ± SD),18 µg/mL
CC[Si](CC)(OC(=O)[C@H](Cc1ccccc1)NC(=O)[C@H](Cc1ccccc1)NC(=O)[C@H](Cc1ccccc1)NC(=O)[C@H](Cc1ccccc1)NC(=O)[C@H](Cc1ccccc1)NC(=O)[C@H](Cc1ccccc1)NC(=O)[C@H](Cc1ccccc1)NC(=O)[C@H](Cc1ccccc1)NC(=O)[C@@H](N)Cc1ccccc1)OC(=O)[C@H](Cc1ccccc1)NC(=O)[C@H](Cc1ccccc1)NC(=O)[C@H](Cc1ccccc1)NC(=O)[C@H](Cc1ccccc1)NC(=O)[C@H](Cc1ccccc1)NC(=O)[C@H](Cc1ccccc1)NC(=O)[C@H](Cc1ccccc1)NC(=O)[C@H](Cc1ccccc1)NC(=O)[C@@H](N)Cc1ccccc1 [Diethyl bis(nonaphenylalanyl)silylester] (I: H-FFFFFFFFF / II: H-FFFFFFFFF; linker I:C-II:C via OSiEt2O),Wirkung gegen Medulloblastome,Medulloblastome,zeigen eine Wirkung
"CCCCCCCCCC(=O)O[Si](CC)(CC)OC(=O)CCCCCCCCC [Si9, Didecanoyloxy - diethylslan]",IC50 Krebszellen (Durchschnitt ± SD),Krebszellen; mean over cancer cell lines,"35,6 ± 6,0 µg/ml"
same,subG1 apoptotische Zellteilung Panc1,[1],"42,8 ± 1,6"
same,subG1 apoptotische Zellteilung Colo205,Colo205 Kolonkarzinom,"32,1 ± 1,41"
same,subG1 apoptotische Zellteilung IEC6,[6],"0,9 ± 0.0"
same,IC50 BxPC3,"BxPC3 - Pankreaskrebs; 200 - 12.5 µg/ml, 4 Tage",40.0 µg/mL
same,IC50 HT29,"HT29 - Kolonkarzinom; 200 - 12.5 µg/ml, 4 Tage",41.5 µg/mL
same,IC50 CR02B,"CRO2B - karzinoid; 200 - 12.5 µg/ml, 4 Tage",31.5 µg/mL
same,IC50 IEC6,"[2]; 200 - 12.5 µg/ml, 4 Tage",17.2 µg/mL
same,IC50 MlAPaCa2,"MIAPaCa2 - Pankreaskrebs; 200 - 12.5 µg/ml, 4 Tage",37.5 µg/mL
same,IC50 A431,"A431 Epidermalkarzinom; 200 - 12.5 µg/ml, 4 Tage",29.4 µg/mL
same,IC50 Colo205,"Colo 205 - Kolonkarzinom; 200 - 12.5 µg/ml, 4 Tage",40.6 µg/mL
same,IC50 NIH3T3,"[3]; 200 - 12.5 µg/ml, 4 Tage",34.4 µg/mL
same,IC50 WI38,"[4]; 200 - 12.5 µg/ml, 4 Tage",37.0 µg/mL
same,IC50 Colo205,colo205 (Kofon-Karzinom); up to 500 µg/ml,60 µg/mL
same,IC50 BxPC3,[5]; up to 500 µg/ml,15 µg/mL
same,IC50 T47D,T47D (Brustkrebs); up to 500 µg/ml,40 µg/mL
same,IC50 Normale Zellen (Durchschnitt ± SD),Normale Zellen; mean over normal cell lines,"29,5 ± 10,8 µg/ml"
